{"source": "paper PMC5949604", "assay": "aziridine aldehyde dimer (S-serine-type dimer 3, parent) + tBuNC multicomponent (disrupted Ugi) head-to-tail macrocyclisation of N-terminal Pro peptides; linker inserts CH-CH-N between Pro N and C-terminal C=O (forms Pro N-C bond and C-terminal acyl aziridine N-C(=O) bond)", "settings": "the molecule shown is the open-chain precursor, TFE, 100.0 mM", "data": [{"smiles": "CC(C)C[C@H](NC(=O)[C@H](CC(C)C)N(C)C(=O)[C@@H]1CCCN1)C(=O)NCC(=O)N[C@@H](Cc1ccccc1)C(=O)O", "note": "[H-Pro-N-Me-Leu-Leu-Gly-Phe-OH]", "values": [{"measurement": "ring closure, isolated yield", "setting": "18-membered ring", "value": 0, "unit": "%"}]}, {"smiles": "CC(C)C[C@H](NC(=O)CNC(=O)[C@]1(C)CCCN1)C(=O)NCC(=O)N[C@H](Cc1ccccc1)C(=O)O", "note": "[H-L-alpha-MePro-Gly-Leu-Gly-D-Phe-OH]", "values": [{"measurement": "ring closure, isolated yield", "setting": "18-membered ring", "value": 0, "unit": "%"}]}, {"smiles": "O=C(CNC(=O)[C@@H]1CCCN1)N[C@@H](Cc1ccccc1)C(=O)O", "note": "[H-Pro-Gly-Phe-OH]", "values": [{"measurement": "ring closure, isolated yield", "setting": "12-membered ring, 4.0 h", "value": 0, "unit": "%"}]}, {"smiles": "CC(C)C[C@H](NC(=O)CNC(=O)[C@@H]1CCCN1)C(=O)N[C@@H](C)C(=O)N[C@@H](Cc1ccccc1)C(=O)O", "note": "[H-Pro-Gly-Leu-Ala-Phe-OH]", "values": [{"measurement": "ring closure, isolated yield", "setting": "18-membered ring, 6.0 h", "value": 9, "unit": "%"}]}, {"smiles": "CC(C)C[C@H](NC(=O)CNC(=O)C[C@@H]1CCCN1)C(=O)NCC(=O)N[C@H](Cc1ccccc1)C(=O)O", "note": "[H-L-beta-homoPro-Gly-Leu-Gly-D-Phe-OH]", "values": [{"measurement": "ring closure, isolated yield", "setting": "19-membered ring", "value": 0, "unit": "%"}]}, {"smiles": "CC(C)C[C@@H](NC(=O)CNC(=O)[C@@H]1CCCN1)C(=O)NCC(=O)N[C@H](CCCCNC(=O)OC(C)(C)C)C(=O)O", "note": "[H-Pro-Gly-D-Leu-Gly-D-Lys(Boc)-OH]", "values": [{"measurement": "ring closure, isolated yield", "setting": "18-membered ring, 6.0 h", "value": 0, "unit": "%"}]}, {"smiles": "CC(C)C[C@H](NC(=O)CNC(=O)[C@@H]1CCCN1)C(=O)N[C@@H](CCCCNC(=O)OC(C)(C)C)C(=O)O", "note": "[H-Pro-Gly-Leu-Lys(Boc)-OH]", "values": [{"measurement": "ring closure, isolated yield", "setting": "15-membered ring, 6.0 h", "value": 0, "unit": "%"}]}, {"smiles": "CC(C)C[C@@H](NC(=O)CNC(=O)[C@@H]1CCCN1)C(=O)NCC(=O)N[C@@H](Cc1ccccc1)C(=O)O", "note": "[H-Pro-Gly-D-Leu-Gly-Phe-OH]", "values": [{"measurement": "ring closure, isolated yield", "setting": "18-membered ring, 4.0 h", "value": 28, "unit": "%"}]}, {"smiles": "CC(C)C[C@H](NC(=O)[C@H](COC(C)(C)C)NC(=O)C[C@@H]1CCCN1)C(=O)N[C@@H](Cc1ccc(OC(C)(C)C)cc1)C(=O)N[C@@H](Cc1ccccc1)C(=O)O", "note": "[H-L-beta-homoPro-Ser(tBu)-Leu-Tyr(tBu)-Phe-OH]", "values": [{"measurement": "ring closure, isolated yield", "setting": "19-membered ring", "value": 0, "unit": "%"}]}, {"smiles": "CC(C)C[C@H](NC(=O)CNC(=O)[C@@H]1CCCN1)C(=O)NCC(=O)N[C@H](Cc1ccccc1)C(=O)O", "note": "[H-Pro-Gly-Leu-Gly-D-Phe-OH]", "values": [{"measurement": "ring closure, isolated yield", "setting": "18-membered ring, 4.0 h", "value": 0, "unit": "%"}]}, {"smiles": "CC(C)C[C@H](NC(=O)CNC(=O)[C@@H]1CCCN1)C(=O)NCC(=O)N[C@@H](Cc1ccccc1)C(=O)O", "note": "[H-Pro-Gly-Leu-Gly-Phe-OH]", "values": [{"measurement": "ring closure, isolated yield", "setting": "18-membered ring, 4.0 h", "value": 34, "unit": "%"}]}, {"smiles": "CC(C)C[C@H](NC(=O)CN(C)C(=O)[C@@H]1CCCN1)C(=O)NCC(=O)N[C@@H](Cc1ccccc1)C(=O)O", "note": "[H-Pro-Sar-Leu-Gly-Phe-OH]", "values": [{"measurement": "ring closure, isolated yield", "setting": "18-membered ring", "value": 0, "unit": "%"}]}, {"smiles": "CC(C)C[C@H](NC(=O)[C@H](COC(C)(C)C)NC(=O)[C@@H]1CCCN1)C(=O)NCC(=O)N[C@@H](Cc1ccccc1)C(=O)O", "note": "[H-Pro-Ser(tBu)-Leu-Gly-Phe-OH]", "values": [{"measurement": "ring closure, isolated yield", "setting": "18-membered ring, 4.0 h", "value": 49, "unit": "%"}]}, {"smiles": "CC(C)C[C@H](NC(=O)[C@H](COC(C)(C)C)NC(=O)[C@@H]1CCCN1)C(=O)N[C@@H](Cc1ccc(OC(C)(C)C)cc1)C(=O)N[C@@H](Cc1ccccc1)C(=O)O", "note": "[H-Pro-Ser(tBu)-Leu-Tyr(tBu)-Phe-OH]", "values": [{"measurement": "ring closure, isolated yield", "setting": "18-membered ring, 4.0 h", "value": 22, "unit": "%"}]}, {"smiles": "CC(C)C[C@H](NC(=O)[C@H](C)NC(=O)[C@@H]1CCCN1)C(=O)NCC(=O)N[C@@H](Cc1ccccc1)C(=O)O", "note": "[H-Pro-Ala-Leu-Gly-Phe-OH]", "values": [{"measurement": "ring closure, isolated yield", "setting": "18-membered ring, 4.0 h", "value": 12, "unit": "%"}]}, {"smiles": "CC(C)C[C@H](NC(=O)CNC(=O)[C@@H]1CCCN1)C(=O)NCC(=O)N[C@@H](CCCCNC(=O)OC(C)(C)C)C(=O)O", "note": "[H-Pro-Gly-Leu-Gly-Lys(Boc)-OH]", "values": [{"measurement": "ring closure, isolated yield", "setting": "18-membered ring, 6.0 h", "value": 23, "unit": "%"}]}]}
